Results on two sequences are retold here after US11505592B2, “Diagnosis and therapy of multiple sclerosis” (PRINDEX S.R.L., priority 2015, dated 2022).

The subject of experiment [1] is MS IgG. As to the kind of experiment: Indirect ELISA of MS IgG binding to receptor peptides. The arrangement: species or system human. The settings on record: 100 μM peptide; 200 μg immunoglobulins. Here is the method:
FIG. 6: Dose-response curves of the interaction between MS sera and DDSK peptide. (A) Sera of Multiple Sclerosis patients and Control (control group is defined in material and method below) (200 μg) were incubated with different concentrations (50-100-250 μM) of peptide DDSK. For the detection, inventors used a secondary antibody anti human IgG conjugated with HRP and (3,3′,5,5′-Tetramethylbenzidine) TMB solution that was added for each well and incubated for 15-30 min. Equal volume of stopping solution (2 M H2SO4) was added to the plate and absorbance (optical density) of plate was read at 450 nm. The statistical analysis derived from 9 experiments. Values are mean±SEM. *P<0.05 MS vs CTRL (B) Linear representation of dose-response curve Values are mean±SEM. *P<0.05 MS vs CTRL.
FIGS. 7A, 7B, 7C and 7D: MS sera recognize specially receptor's peptides. […] Equal volume of stopping solution (2 M H2SO4) was added to the plate and absorbance (optical density) of plate was read at 450 nm. […]
A. Sera of Multiple Sclerosis patients and Control (200 μg) were incubated in absence (uncoated) or presence of 100 μM of DDSK peptide. […] Equal volume of stopping solution (2 M H2SO4) was added to the plate and absorbance (optical density) of plate was read at 450 nm. […]
Diluted peptide (20 μg/ml) was coated to the wells of a PVC microtiter plate and incubated at 4° C. overnight. […] For the detection, we used a secondary antibody anti human (recognized constant region of the patient antibody conjugated with HRP and (3,3′,5,5′-Tetramethylbenzidine) TMB solution that was added for each well and incubated for 15-30 min. Equal volume of stopping solution (2 M H2SO4) was added to the plate and absorbance (optical density) of plate was read at 450 nm.
To evaluate the peptide concentration to use for ELISA assay we performed a dose-response curve. […] (named DDSK in the figures) and the absorbance (optical density) of plate was read at 450 nm. […]

Experiment [2] deals with MO3-13 cells. As to the kind of experiment: Determination of reactive oxygen species (DCF fluorescence) in MO3-13 cells. As to conditions: 50 μM peptide 30 min, then 200 μg/ml IgG MS 30 min. It is filed as cell-based, human. The protocol: FIG. 10A: DDSK peptide reverts the effects of Ig from MS patients on ROS levels in MO3-13 cells. MO3-13 cells were grown to semi-confluence in 24 multiwell plates and incubated for 18 h in medium containing 0.2% FBS. The cells were washed twice with FBS free medium, incubated with 50 μM of DDSK for 30 min and then with 200 μg/ml of IgG from Control (IgGCtr) or MS (IgGMS) patients for 30 min. Then, the cells were incubated with 10 μM DCHF-DA for 10 min, washed three times and DCF fluorescence was measured using a plate reader fluorometer. The histograms show the mean+/−SEM values obtained in 5 different experiments from 7 control and 7 MS subjects. # p<0.05 vs IgGCtr; *p<0.05 vs IgGMS.
MO3-13 cells were grown to semi-confluence in 24 multiwell plates and incubated for 18 h in medium containing 0.2% FBS. The cells were washed twice with FBS free medium, incubated with 50 μM of Scrambled peptide (Sc) for 30 min and then with 200 μg/ml of IgG from Control (IgGCtr) or MS (IgGMS) patients for 30 min. Then, the cells were incubated with 10 μM DCHF-DA for 10 min, washed three times and DCF fluorescence was measured using a plate reader fluorometer. The histograms show the mean+/−SEM values obtained from 3 control and 3 MS subjects. *p<0.05 vs IgGCtr.
ROS levels were determined using the membrane-permeant fluorogenic probe 5,6-carboxy-2′,7′-dichlorofluoresceindiacetate, DCHFDA (Molecular Probes, Leiden, the Netherlands). The assay was based on the fluorescence detection of dichlorofluorescein (DCF), formed by ROS-mediated oxidation of the non-fluorescent precursor, dichlorofluorescin.
MO3-13 cells were grown to semi-confluence in 24 multiwell plates (45000 cell/well) and incubated for 18 h in medium containing 0.2% FBS before the experiments. […] DCF fluorescence was measured using the plate reader Fluoroskan Ascent FL fluorometer (Thermo Electron Oy, Vantaa, Finland) and data analyzed by Ascent software.

As for LYGYRWPLPSKL, in experiment [1], the “binding of MS IgG to peptide respect to scrambled” value was “bind specifically”.

For “TWYAHNCRLQ [Scrambled peptides, scrambled peptide used as negative control, reference compound]”, in experiment [2], the “effect of peptide preincubation on ROS levels of IgG MS treated cells” value is listed as “did not influence”.
